Test results from ChEMBL document CHEMBL5329194, “Design, Synthesis, and Evaluation of 18F-Labeling CYP1B1 PET Tracer Based on 2-Phenylquinazolin” (Bioorg Med Chem Lett, 2023).

Columns and labels:
Format in all cases: ADME
Cytochrome P450 1B1 = biological target: T1, Cytochrome P450 1B1 (Homo sapiens, UniProt Q16678); assay: Inhibition of CYP1B1 (unknown origin) by EROD assay
T1 sequence (Q16678 whole entry): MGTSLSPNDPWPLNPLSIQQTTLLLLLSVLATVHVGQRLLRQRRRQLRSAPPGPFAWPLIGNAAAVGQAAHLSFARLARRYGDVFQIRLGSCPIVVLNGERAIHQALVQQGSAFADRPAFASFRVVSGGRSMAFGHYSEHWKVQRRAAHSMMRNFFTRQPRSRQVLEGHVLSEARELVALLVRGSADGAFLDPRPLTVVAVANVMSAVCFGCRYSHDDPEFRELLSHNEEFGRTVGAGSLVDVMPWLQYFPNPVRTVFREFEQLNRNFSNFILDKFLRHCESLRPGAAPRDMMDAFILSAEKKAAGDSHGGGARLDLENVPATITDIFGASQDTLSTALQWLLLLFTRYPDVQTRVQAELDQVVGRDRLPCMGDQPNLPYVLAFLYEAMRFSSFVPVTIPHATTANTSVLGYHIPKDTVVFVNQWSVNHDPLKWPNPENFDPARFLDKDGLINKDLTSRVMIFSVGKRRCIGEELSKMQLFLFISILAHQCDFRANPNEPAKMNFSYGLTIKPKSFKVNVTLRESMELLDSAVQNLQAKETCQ

Cytochrome P450 1A1 = biological target: T2, Cytochrome P450 1A1 (Homo sapiens, UniProt P04798); assay: Inhibition of CYP1A1 (unknown origin)
T2 sequence (P04798 whole entry): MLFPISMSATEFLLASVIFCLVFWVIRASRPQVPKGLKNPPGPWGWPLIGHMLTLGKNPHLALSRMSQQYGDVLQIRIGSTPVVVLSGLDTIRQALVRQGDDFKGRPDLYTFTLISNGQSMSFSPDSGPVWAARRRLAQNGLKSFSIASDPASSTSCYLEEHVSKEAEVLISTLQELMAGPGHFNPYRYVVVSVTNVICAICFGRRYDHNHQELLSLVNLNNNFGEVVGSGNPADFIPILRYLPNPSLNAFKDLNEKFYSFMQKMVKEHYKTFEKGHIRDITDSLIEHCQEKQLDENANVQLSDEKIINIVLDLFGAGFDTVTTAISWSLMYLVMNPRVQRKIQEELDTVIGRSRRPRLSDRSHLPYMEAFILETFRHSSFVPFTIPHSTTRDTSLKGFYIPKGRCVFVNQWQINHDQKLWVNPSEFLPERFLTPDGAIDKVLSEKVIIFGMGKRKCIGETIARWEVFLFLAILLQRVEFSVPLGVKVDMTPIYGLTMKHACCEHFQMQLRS

Cytochrome P450 1A2 = biological target: T3, Cytochrome P450 1A2 (Homo sapiens, UniProt P05177); assay: Inhibition of CYP1A2 (unknown origin)
T3 sequence (P05177 whole entry): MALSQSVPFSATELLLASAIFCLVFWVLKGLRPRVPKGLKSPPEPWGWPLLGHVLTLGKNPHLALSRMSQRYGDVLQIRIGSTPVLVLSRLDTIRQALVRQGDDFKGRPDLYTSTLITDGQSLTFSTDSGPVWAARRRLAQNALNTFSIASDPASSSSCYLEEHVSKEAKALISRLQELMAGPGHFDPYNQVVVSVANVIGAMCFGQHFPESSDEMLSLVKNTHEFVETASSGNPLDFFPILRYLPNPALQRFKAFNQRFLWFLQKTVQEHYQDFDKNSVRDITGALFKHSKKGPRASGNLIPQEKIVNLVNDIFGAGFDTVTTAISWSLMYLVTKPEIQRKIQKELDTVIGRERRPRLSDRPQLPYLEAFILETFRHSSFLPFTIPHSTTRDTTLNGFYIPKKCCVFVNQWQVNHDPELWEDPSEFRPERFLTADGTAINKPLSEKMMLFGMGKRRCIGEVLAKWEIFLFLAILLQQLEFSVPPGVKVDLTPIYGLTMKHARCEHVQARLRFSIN

Measured: IC50

Oc1nc(-c2ccc(F)cc2)nc2ccccc12
> 1000 nM: Cytochrome P450 1B1 | Cytochrome P450 1A1 | Cytochrome P450 1A2
